Assays:
HepG2 cells [1] = experiment: Morphologic observation by light microscope; assay type: cell-based, human; details: HepG2, 15 and 45 µM, 24 h
Protocol: Morphological observations can directly reflect the effects of drugs on cells. HepG2 cells were cultured with increasing concentrations of compound r (0, 5, 15 and 45 µM) for 24 h and observed using a light microscope. The cell morphology was clearly altered with the increase in drug concentration (figure 2).
Figure 2. Effect of compound r on the microscopic examination of HepG2 cells. Morphology of HepG2 treated with compound r (0, 5, 15 and 45 µM) and cisplatin (20 µM) for 24 h. Light microscopy photographs, with 40× objective.
(§1) Cells were seeded in 96-well microtiter plates at a density of 1 × 10^4 cells well^−1 and incubated with different concentrations of compound (6.25, 12.50, 25.00, 50.00 to 100.00 µM), cisplatin and paclitaxel in RPMI-1640 or DMEM at 37°C with 5% CO2. After 24 h, cell morphology was observed using a light microscope, and then 20 µl of MTT solution (5 mg ml^−1) was added to the well and incubated for 4 h, then cell survival was determined by measuring the optical density (OD) absorbance at a wavelength of 570 nm using an ELISA microplate reader. The inhibition rate (IR) following each compound treatment was determined by the following equation: IR (%) = (1 − ODexp/ODcon) × 100%, where ODexp and ODcon are the OD of the treated and untreated cells, respectively. Cisplatin and paclitaxel were used as positive control drugs.

HepG2 cells [2] = experiment: Apoptosis analysis, Annexin V-FITC/PI flow cytometry; assay type: cell-based, human; details: 24 h
Protocol: To investigate the effect of compound r on the apoptosis of HepG2 cells, cells were treated with different concentrations of compound r (0, 5, 15 and 45 µM) for 24 h and apoptosis was detected by flow cytometry analysis.
Figure 4. Effect of compound r on the apoptosis in HepG2 cells. Analysis of compound r induced apoptosis in HepG2 cells. The HepG2 cells were treated with 0, 5, 15 or 45 µM by flow cytometry. Cells were stained using propidium iodide (IP) and fluorescein isothiocyanate (FITC). The data manifested the percentage of early apoptotic cells (lower right) or late apoptosis and cell death (upper right) in each quadrant. TEXT PRINTED IN THE PICTURE: control: 7.22% (20 μM); 51.10% (20 μM); 18.67% (20 μM); 23.01% (20 μM) | compound r: 10.95% (low (5 μM)); 22.17% (low (5 μM)); 45.61% (low (5 μM)); 21.27% (low (5 μM)); 10.26% (middle (15 μM)); 18.51% (middle (15 μM)); 33.78% (middle (15 μM)); 37.45% (middle (15 μM)); 7.78% (high (45 μM)); 32.94% (high (45 μM)); 28.71% (high (45 μM)); 30.57% (high (45 μM)) DOUBTS OF THE COPYIST ABOUT THIS PICTURE: The quadrant percentages have no printed measure. For each plot they are listed in the order upper left, upper right, lower left, lower right (axes PI vs annexin V FITC). / The blank (0 μM) plot prints 0.00%, 0.01%, 99.91% (faint, partly hidden by dots, uncertain) and 0.08%. It is left out because no substance is present. / control (20 μM): 18.67% and 23.01% are partly overlaid by dots, so the digits are not fully certain. / compound r, low (5 μM): 21.27% is partly overlaid by dots; the first digit could be 2 or 3. 45.61% is in small print. / compound r, middle (15 μM): 33.78% and 37.45% are in small print, so 3/8 are not fully certain. / compound r, high (45 μM): 30.57% is partly overlaid by dots, and 28.71% is in small print. / The label 'compound r' is printed only on the axis of the bar chart. The scatter plots themselves are labelled only low, middle and high.
HepG2 cells seeded in 6-well plates were treated with compound r (0, 5, 15, 45 µM) or cisplatin (20 µM) for 24 h. […] The stained cells were detected via a flow cytometer.

HeLa cells = experiment: MTT anti-proliferation assay, HeLa; assay type: cell-based, human; details: 24 h, average of three determinations
Protocol: The 22 synthesized resveratrol compounds were evaluated for anti-proliferative activities against three human cancer cell lines, including HepG2, A549 and HeLa cells, using 3-[4,5-dimethylthiazol-2-yl]-2,5 diphenyl tetrazolium bromide (MTT) assays. Paclitaxel, a well-known tubulin inhibitor, was used as a positive control.
(§2) The anti-proliferative and cytotoxicity activity was determined using MTT assay. Human cervical carcinoma HeLa cells, human hepatocellular carcinoma HepG2 cells, human lung carcinoma A549 cells were representative in the anti-proliferation assay, which were obtained from the Shanghai Institute of Cell Biology (Shanghai, China). Normal African green monkey kidney Vero cells were a gift from Dr Xiumiao He at Guangxi University for Nationalities. Normal human hepatocytes LO2 cells were a gift from Dr Xing Lin at Guangxi Medical University. The HepG2, Hela, LO2 and Vero cells were cultured in Dulbecco's modified Eagle's medium (DMEM, Gibco) and the A549 cells were cultured in RPMI1640 (Gibco), both media were supplemented with 10% fetal calf serum and antibiotics (100 IU ml^−1 penicillin, 100 IU ml^−1 streptomycin; Amresco).
After 24 h, cell morphology was observed using a light microscope, and then 20 µl of MTT solution (5 mg ml^−1) was added to the well and incubated for 4 h, then cell survival was determined by measuring the optical density (OD) absorbance at a wavelength of 570 nm using an ELISA microplate reader. […] Cisplatin and paclitaxel were used as positive control drugs.

[3] = MTT cytotoxicity test, LO2; assay type: cell-based, human; details: human, LO2 cells (normal human hepatocytes), average of three determinations
Protocol: (§3) Vero cells are non-tumorigenic cell lines and are important raw materials as the research and production of biological products. Vero cells show low tumorigenicity and had been approved for use in the production of human virus vaccines. Thus, Vero cells were chosen as a control for cytotoxicity. All compounds were evaluated for their cell toxicity against Vero and normal human hepatocytes cells line (LO2) using MTT assays.
as §2, §1

[4] = MTT cytotoxicity test, Vero; assay type: cell-based, African green monkey; details: African green monkey, Vero cells (normal African green monkey kidney), average of three determinations
Protocol: as §3, §2, §1

IC50 (HeLa cells): 4.8 ± 0.8 µM
IC50 (HeLa cells; Homo sapiens, HeLa): 4.79 µM
Compound: COc1ccc(C(=Cc2cc(C(F)(F)F)ccc2Cl)C(=O)O)cc1 [compound r, 3-(2-chloro-5-(trifluoromethyl)phenyl)-2-(4-methoxyphenyl) acrylic acid]
cell morphology (HepG2 cells [1]): shrinkage, rounding and detachment from the plate surface
apoptotic cell population (HepG2 cells [2]; HepG2, 5 µM): 43.44%
apoptotic cell population (HepG2 cells [2]; HepG2, 15 µM): 55.96%
apoptotic cell population (HepG2 cells [2]; HepG2, 45 µM): 63.51%
CC50 at 24 h [3]: > 100 µM
CC50 at 24 h [4]: 84 ± 3 µM

Source: article PMC6774960, “Design, synthesis and biological evaluation of a series of new resveratrol analogues as potential anti-cancer agents” (Royal Society Open Science, 2019)
